Test results: ChEMBL document CHEMBL4725381, “Synthesis and activity of isoleucine sulfonamide derivatives as novel botulinum neurotoxin serotype A light chain inhibitors” (Bioorg Med Chem, 2020)
The source made the active and inactive calls. The calls are words filed in the database; no cut-off is given here.

target: Botulinum neurotoxin type A (Clostridium botulinum, UniProt P0DPI0); experiment: Inhibition of Clostridium botulinum BoNT/A light chain using SNAPtide as substrate preincubated with enzyme for 2 mins followed by substrate addition and measured for 0-5 mins by FRET assay
Sequence (P0DPI0 2-448 limits assumed): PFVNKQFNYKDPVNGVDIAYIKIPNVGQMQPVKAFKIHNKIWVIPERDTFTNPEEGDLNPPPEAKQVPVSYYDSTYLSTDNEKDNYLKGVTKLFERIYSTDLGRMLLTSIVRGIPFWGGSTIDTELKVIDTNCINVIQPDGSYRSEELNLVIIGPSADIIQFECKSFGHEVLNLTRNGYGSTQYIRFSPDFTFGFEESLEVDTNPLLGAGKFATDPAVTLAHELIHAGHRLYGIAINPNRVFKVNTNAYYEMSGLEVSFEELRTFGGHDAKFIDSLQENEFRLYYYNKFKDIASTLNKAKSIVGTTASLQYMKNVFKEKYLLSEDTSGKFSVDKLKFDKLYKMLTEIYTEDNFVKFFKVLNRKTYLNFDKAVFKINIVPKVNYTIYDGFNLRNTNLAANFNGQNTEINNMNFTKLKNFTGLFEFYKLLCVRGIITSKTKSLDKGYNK

| SMILES | IC50 |
| --- | --- |
| CC[C@@H](C)[C@@H](NS(=O)(=O)c1cccc(-c2ccccc2Cl)c1)C(=O)NO | 0.587 µM |
| CC[C@@H](C)[C@@H](NS(=O)(=O)c1cccc(-c2cc3ccccc3o2)c1)C(=O)NO | 14 µM |

target: Botulinum neurotoxin type A (Clostridium botulinum) (UniProt P0DPI0); experiment: Inhibition of Clostridium botulinum BoNT/A light chain at 30 uM using SNAPtide as substrate preincubated with enzyme for 2 mins followed by substrate addition and measured for 0-5 mins by FRET assay relative to control
Sequence (P0DPI0 2-448 limits assumed): as above

| SMILES | inhibition |
| --- | --- |
| CC[C@H](C)[C@H](NS(=O)(=O)c1cccc(-c2cc(Cl)ccc2Cl)c1)C(=O)NO | 29% |
| CC[C@H](C)[C@H](NS(=O)(=O)c1cccc(-c2ccc([N+](=O)[O-])cc2)c1)C(=O)NO | 41% |
| CC[C@H](C)[C@H](NS(=O)(=O)c1cccc(-c2c(Cl)cccc2Cl)c1)C(=O)NO | 66% |
| CC[C@H](C)[C@H](NS(=O)(=O)c1cccc(-c2ccco2)c1)C(=O)NO | 40% |
| CC[C@@H](C)[C@@H](NS(=O)(=O)c1cccc(-c2cc3ccccc3o2)c1)C(=O)NO | 94% |
| CC(C)C[C@@H](NS(=O)(=O)c1cccc(-c2cc3ccccc3o2)c1)C(=O)NO | 86% |
| CC[C@H](C)[C@H](NS(=O)(=O)c1cccc(-c2ccccc2Cl)c1)C(=O)NO | 50% |
| CC[C@@H](C)[C@@H](NC(=O)c1cccc(-c2cc3ccccc3o2)c1)C(=O)NO | 16% |
| CC[C@H](C)[C@H](NS(=O)(=O)c1cccc(-c2cccc(Cl)c2)c1)C(=O)NO | 44% |
| CC[C@H](C)[C@H](NC(=O)c1cccc(-c2cc3ccccc3o2)c1)C(=O)NO | 80% |
| CC[C@H](C)[C@H](NS(=O)(=O)c1cccc(-c2cccc([N+](=O)[O-])c2)c1)C(=O)NO | 34% |
| CC[C@H](C)[C@H](NC(=O)c1cccc(-c2cc(Cl)ccc2Cl)c1)C(=O)NO | 68% |
| CC[C@H](C)[C@H](NC(=O)c1cccc(-c2ccccc2Cl)c1)C(=O)NO | 50% |
| CC[C@H](C)[C@H](NS(=O)(=O)c1cccc(-c2ccoc2)c1)C(=O)NO | 14% |
| CCCC[C@H](NS(=O)(=O)c1cccc(-c2cc3ccccc3o2)c1)C(=O)NO | 44% |
| CC[C@H](C)[C@H](NC(=O)c1cccc(-c2cccc(Cl)c2)c1)C(=O)NO | 64% |
| CC[C@H](C)[C@H](NC(=O)c1cccc(-c2ccco2)c1)C(=O)NO | 58% |
| CC[C@H](C)[C@H](NS(=O)(=O)c1cccc(-c2ccc(Cl)cc2Cl)c1)C(=O)NO | 48% |
| O=C(NO)C1(NS(=O)(=O)c2cccc(-c3cc4ccccc4o3)c2)CC1 | inactive |
| CC(C)C[C@@H](NC(=O)c1cccc(-c2cc3ccccc3o2)c1)C(=O)NO | 58% |
| CC[C@H](C)[C@H](NS(=O)(=O)c1cccc(-c2cc3ccccc3o2)c1)C(=O)NO | 61% |
| CC[C@H](C)[C@H](NS(=O)(=O)c1cccc(-c2ccc(Cl)c(Cl)c2)c1)C(=O)NO | 26% |
